From the Kinase Knowledgebase extract (Sharma et al. 2016)

Key:
EGFR = EGFR (UniProt P00533)
EGFR (murine) = EGFR (murine) (UniProt P00533); conditions: nih3t3
EGFR (murine), sequence (P00533 whole entry, looked up): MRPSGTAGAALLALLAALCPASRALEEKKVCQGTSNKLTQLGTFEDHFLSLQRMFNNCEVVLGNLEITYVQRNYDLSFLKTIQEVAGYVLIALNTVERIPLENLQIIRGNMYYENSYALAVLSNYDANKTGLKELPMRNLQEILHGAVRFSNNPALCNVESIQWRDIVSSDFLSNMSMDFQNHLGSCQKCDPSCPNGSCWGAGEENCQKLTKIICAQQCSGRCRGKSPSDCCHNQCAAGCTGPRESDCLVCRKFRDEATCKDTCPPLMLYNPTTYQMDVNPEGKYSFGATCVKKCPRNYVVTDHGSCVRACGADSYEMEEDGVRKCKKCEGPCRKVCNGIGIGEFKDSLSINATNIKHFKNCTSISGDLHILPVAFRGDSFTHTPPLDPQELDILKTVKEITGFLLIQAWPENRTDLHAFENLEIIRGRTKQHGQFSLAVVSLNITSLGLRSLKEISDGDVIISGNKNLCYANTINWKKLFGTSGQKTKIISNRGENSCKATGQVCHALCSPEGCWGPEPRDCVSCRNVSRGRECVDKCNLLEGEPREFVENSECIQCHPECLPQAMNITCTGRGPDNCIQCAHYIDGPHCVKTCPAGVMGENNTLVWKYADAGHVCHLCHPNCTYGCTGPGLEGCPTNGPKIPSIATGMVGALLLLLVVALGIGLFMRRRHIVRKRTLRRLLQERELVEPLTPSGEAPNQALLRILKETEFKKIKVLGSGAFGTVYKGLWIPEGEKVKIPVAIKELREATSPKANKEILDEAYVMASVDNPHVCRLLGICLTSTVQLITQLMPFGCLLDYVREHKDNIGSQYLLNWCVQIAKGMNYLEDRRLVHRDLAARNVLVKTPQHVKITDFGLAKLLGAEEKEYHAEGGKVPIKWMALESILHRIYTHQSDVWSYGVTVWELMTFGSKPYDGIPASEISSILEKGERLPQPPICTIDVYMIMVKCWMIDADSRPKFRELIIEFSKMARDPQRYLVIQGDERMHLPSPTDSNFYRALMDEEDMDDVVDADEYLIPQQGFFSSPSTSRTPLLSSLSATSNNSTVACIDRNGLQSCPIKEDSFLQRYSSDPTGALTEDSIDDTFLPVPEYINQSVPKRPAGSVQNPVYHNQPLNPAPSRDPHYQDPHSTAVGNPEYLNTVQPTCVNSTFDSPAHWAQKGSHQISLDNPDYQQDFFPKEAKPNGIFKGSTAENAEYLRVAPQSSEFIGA

EGFR, sequence (P00533 whole entry, looked up): as above

IC50 (EGFR)	IC50 (EGFR (murine))	SMILES
> 100 µM		O=C1Nc2cccc(CCO)c2C1Cc1ccccc1 (configuration not stated)
> 100 µM		CC(C)c1ccc(OCCc2cccc3c2CC(=O)N3)cc1
> 100 µM		Cc1[nH]c(/C=C2\C(=O)Nc3cccc(CCOc4cccc(C(C)C)c4)c32)c(C)c1CCCN(C)C
> 100 µM	> 50 µM	COc1ccc(CC2C(=O)Nc3ccc(CCN4CCOCC4)cc32)cc1-c1ccsc1 (configuration not stated)
12.1 µM		Cc1[nH]c(/C=C2/C(=O)Nc3cc(-c4cccnc4)ccc32)c(C)c1CCCN(C)C
> 100 µM	> 50 µM	Cc1cccc2c1C(Cc1ccc3[nH]ccc3c1)C(=O)N2 (configuration not stated)
> 100 µM		O=C1Nc2cccc(CCO)c2C1Cc1ccc(Br)cc1 (configuration not stated)
> 100 µM		CC(C)c1cc(CC2C(=O)Nc3ccc(Cl)cc32)cc(C(C)C)c1OCCN1CCOCC1 (configuration not stated)
> 100 µM	> 50 µM	Cc1cccc(CC2C(=O)Nc3cccc(CCO)c32)n1 (configuration not stated)
> 100 µM	> 50 µM	O=C1Nc2ccccc2C1Cc1ccc2[nH]ccc2c1 (configuration not stated)
> 100 µM	> 50 µM	O=C1Nc2ccc(F)cc2C1Cc1ccc(O)c(C2CCCC2)c1 (configuration not stated)
> 100 µM		O=C1Cc2c(CCOc3cccc(-c4ccccc4)c3)cccc2N1
> 100 µM		COc1ccc(OCCc2cccc3c2CC(=O)N3)cc1
> 100 µM		CC(C)c1cccc(OCCc2cccc3c2CC(=O)N3)c1
> 100 µM		O=C1Nc2cc(-c3cccs3)ccc2/C1=C\c1ccccc1O
> 100 µM	> 50 µM	Cc1[nH]c(/C=C2\C(=O)Nc3cccc(CCOc4ccc(C(C)C)cc4)c32)c(C)c1CCC(=O)O
> 100 µM		COc1ccccc1-c1ccc2c(c1)NC(=O)C2Cc1[nH]c(C)c(CCCN(C)C)c1C (configuration not stated)
> 100 µM	> 50 µM	COc1ccc(CC2C(=O)Nc3cc(NC(C)=O)ccc32)cc1-c1cccs1 (configuration not stated)
> 100 µM	> 50 µM	COc1ccc(CC2C(=O)Nc3cc(-c4ccccc4)ccc32)c(O)c1 (configuration not stated)
> 100 µM		Cc1[nH]c(CC2C(=O)Nc3ccc(Br)cc32)c(C)c1CCCN(C)C (configuration not stated)
> 100 µM		O=C(Nc1ccc2c(c1)NC(=O)C2Cc1cc(Cl)ccc1O)C1CCCC1 (configuration not stated)

IC50 (EGFR)	IC50 (EGFR (murine))	SMILES
> 100 µM		O=C1Nc2cc(-c3cccnc3)ccc2/C1=C\c1ccccc1O
> 100 µM		Cc1[nH]c(/C=C2/C(=O)Nc3cc(-c4cccs4)ccc32)c(C)c1CCCN(C)C
> 100 µM		COc1ccc(CC2C(=O)Nc3ccc(F)cc32)cc1C1CCCC1 (configuration not stated)
> 100 µM		COc1ccc2c(c1)NC(=O)C2Cc1ccc(OC)c(-c2ccsc2)c1 (configuration not stated)
> 100 µM		COc1ccc(/C=C2\C(=O)Nc3cccc(CCO)c32)cc1-c1cccs1
> 100 µM	> 50 µM	Cc1[nH]c(CC2C(=O)Nc3ccccc32)c(C)c1CCCN(C)C (configuration not stated)
> 100 µM		O=C1Nc2cc(-c3ccccc3)ccc2C1Cc1cc(Br)ccc1O (configuration not stated)
> 100 µM		O=C1Nc2cc(-c3ccsc3)ccc2/C1=C\c1ccccc1O
48.7 µM		COc1cccc(-c2ccc3c(c2)NC(=O)C3Cc2[nH]c(C)c(CCCN(C)C)c2C)c1 (configuration not stated)
> 100 µM		CCOCCc1cccc2c1CC(=O)N2
> 100 µM		Cc1[nH]c(CC2C(=O)Nc3ccc(Cl)cc32)c(C)c1CCCN(C)C (configuration not stated)
> 100 µM		COc1ccc(-c2ccc3c(c2)NC(=O)C3Cc2[nH]c(C)c(CCCN(C)C)c2C)cc1 (configuration not stated)
> 100 µM		COc1ccc(/C=C2/C(=O)Nc3cc(-c4ccsc4)ccc32)cc1-c1cccs1
> 100 µM		CC(C)c1ccccc1OCCc1cccc2c1CC(=O)N2
> 100 µM		O=C1Nc2cccc(CCO)c2/C1=C/c1ccc2[nH]ccc2c1
> 100 µM		COc1ccc(/C=C2/C(=O)Nc3cc(-c4cccnc4)ccc32)cc1-c1cccs1
> 100 µM	> 50 µM	O=C1Nc2cc(-c3ccccc3)ccc2C1Cc1cccc(F)c1O (configuration not stated)
> 100 µM		O=C1Cc2c(CCOC(=S)Nc3ccccc3)cccc2N1
> 100 µM		COCCc1cccc2c1CC(=O)N2
> 100 µM		O=C1Cc2c(CCOC(=O)Nc3ccccc3-c3ccccc3)cccc2N1
> 100 µM		CC(C)NC(=O)OCCc1cccc2c1CC(=O)N2

IC50 (EGFR)	IC50 (EGFR (murine))	SMILES
> 100 µM		COc1ccc(-c2cc(CC3C(=O)Nc4ccccc43)c(O)cc2OC)cc1 (configuration not stated)
> 100 µM		O=C1Nc2cccc(CCO)c2/C1=C\c1ccc(Br)cc1
> 100 µM		O=C(Nc1ccc2c(c1)NC(=O)C2Cc1cc(Cl)cc(Cl)c1O)C1CCCC1 (configuration not stated)
> 100 µM		O=C1Cc2c(CCOC(=O)NS(=O)(=O)c3ccccc3)cccc2N1
> 100 µM		CC(C)(C)c1cc(CC2C(=O)Nc3ccc(Cl)cc32)cc(Br)c1O (configuration not stated)
> 100 µM		CCNC(=O)OCCc1cccc2c1CC(=O)N2
> 100 µM	25.3 µM	Cc1[nH]c(/C=C2\C(=O)Nc3cccc(CCO)c32)c(C)c1CCCN(C)C
	> 50 µM	COc1ccc(/C(=C2/C(=O)Nc3ccccc32)c2[nH]c(C)cc2C)cc1
> 100 µM		O=C1Cc2c(CCOc3cncc(Cl)c3)cccc2N1
> 100 µM	> 50 µM	COc1cccc(-c2ccc3c(c2)NC(=O)C3Cc2ccccc2O)c1 (configuration not stated)
> 100 µM	3 µM	O=C1Nc2cccc(CCO)c2/C1=C/c1ccccn1
> 100 µM		CC(=O)Nc1ccc2c(c1)NC(=O)C2Cc1ccc(OCCN2CCOCC2)c(C2CCCCC2)c1 (configuration not stated)
> 100 µM		O=C1Cc2c(CCOC(=O)NC3CCCCC3)cccc2N1
> 100 µM		CC(C)(C)NC(=O)OCCc1cccc2c1CC(=O)N2
> 100 µM		O=C1Cc2c(CCOC(=O)Nc3ccccc3)cccc2N1
> 100 µM	> 50 µM	COc1c(C(C)C)cc(CC2C(=O)Nc3ccccc32)cc1C(C)C (configuration not stated)
> 100 µM		COc1cc(C)c(CC2C(=O)Nc3ccccc32)cc1C(C)C (configuration not stated)
> 100 µM	> 50 µM	Cc1ccc(O)c(/C=C2\C(=O)Nc3cccc(CCO)c32)n1
> 100 µM		COc1ccc(/C=C2/C(=O)Nc3cc(-c4cccs4)ccc32)cc1-c1cccs1
> 100 µM		Cc1cccc(/C=C2\C(=O)Nc3cccc(CCO)c32)n1
